Data: ChEMBL document CHEMBL1201862, “PubChem BioAssay data set” (2004)
Each block holds one compound with its values, some of them ahead of it. Activity calls are given as the source filed them.

Assays:
[1] = biological target: T1, Rac GTPase-activating protein 1 (Homo sapiens, UniProt Q9H0H5); test: MgcRacGAP GTPase-activating activity inhibitors, confirmation, biochemical, ADP Hunter fluorescence, primary and confirmatory (AID 624330); format: functional
T1 sequence (Q9H0H5 whole entry): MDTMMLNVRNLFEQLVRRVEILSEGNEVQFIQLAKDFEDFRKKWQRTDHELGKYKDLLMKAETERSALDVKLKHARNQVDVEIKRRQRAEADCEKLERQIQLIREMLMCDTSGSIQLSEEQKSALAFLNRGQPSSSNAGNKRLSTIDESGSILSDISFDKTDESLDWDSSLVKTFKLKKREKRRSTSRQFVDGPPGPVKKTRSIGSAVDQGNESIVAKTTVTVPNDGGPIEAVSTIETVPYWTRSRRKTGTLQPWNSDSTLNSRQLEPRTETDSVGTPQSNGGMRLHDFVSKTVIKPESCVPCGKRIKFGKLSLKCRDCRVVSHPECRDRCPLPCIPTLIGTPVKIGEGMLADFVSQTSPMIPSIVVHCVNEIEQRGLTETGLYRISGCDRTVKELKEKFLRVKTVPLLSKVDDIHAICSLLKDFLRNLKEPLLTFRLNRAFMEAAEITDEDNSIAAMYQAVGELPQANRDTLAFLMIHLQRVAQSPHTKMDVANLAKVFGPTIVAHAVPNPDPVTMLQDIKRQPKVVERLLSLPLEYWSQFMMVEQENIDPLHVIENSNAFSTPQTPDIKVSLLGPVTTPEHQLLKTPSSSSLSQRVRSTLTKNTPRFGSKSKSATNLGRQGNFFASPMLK

[2] = biological target: T2, Corticotropin-releasing factor receptor 2/Corticotropin-releasing factor-binding protein (Homo sapiens, UniProt P24387+Q13324); test: activators of CRF receptor 2 with binding protein – uHTS hits, confirmation (AID 602473); format: functional; settings: read-out: EC50_Mean
T2 sequence (Q13324 whole entry): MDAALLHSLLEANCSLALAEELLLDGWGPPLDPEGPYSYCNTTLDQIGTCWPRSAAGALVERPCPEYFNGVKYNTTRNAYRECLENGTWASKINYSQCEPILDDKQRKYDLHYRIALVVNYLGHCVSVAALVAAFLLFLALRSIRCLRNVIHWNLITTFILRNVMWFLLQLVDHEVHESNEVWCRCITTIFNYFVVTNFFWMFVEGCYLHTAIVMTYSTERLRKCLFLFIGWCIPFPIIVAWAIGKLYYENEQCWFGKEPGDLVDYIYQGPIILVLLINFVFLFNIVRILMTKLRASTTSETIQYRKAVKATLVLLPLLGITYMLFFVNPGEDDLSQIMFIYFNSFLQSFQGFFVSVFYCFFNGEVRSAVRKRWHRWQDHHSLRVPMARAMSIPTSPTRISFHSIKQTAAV
T2 sequence (P24387 whole entry): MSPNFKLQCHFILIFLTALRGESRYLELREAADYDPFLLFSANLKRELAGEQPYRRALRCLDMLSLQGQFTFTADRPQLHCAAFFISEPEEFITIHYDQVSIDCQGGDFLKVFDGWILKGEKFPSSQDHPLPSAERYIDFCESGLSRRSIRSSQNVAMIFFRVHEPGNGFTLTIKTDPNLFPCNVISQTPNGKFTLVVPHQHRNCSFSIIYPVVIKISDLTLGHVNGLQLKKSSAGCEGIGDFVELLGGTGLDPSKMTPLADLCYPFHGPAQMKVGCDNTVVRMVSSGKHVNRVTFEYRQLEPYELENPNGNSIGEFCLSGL

[3] = biological target: Cytochrome P450 2C9 (Homo sapiens, UniProt P11712)
[4] = biological target: Cytochrome P450 2D6 (Homo sapiens, UniProt P10635);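 note: CYP2D6 member of a cytochrome P450 panel assay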
[5] = biological target: Cytochrome P450 2C19 (Homo sapiens, UniProt P33261); test: Cytochrome panel assay with activity outcomes. Panel member name: p450-cyp2c19 Compounds with AC50 equal or less than 10 uM are considered active; format: functional
[6] = biological target: T3, Cytochrome P450 1A2 (Homo sapiens, UniProt P05177);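 note: PubChem cytochrome P450 panel assay, CYP1A2 panel member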
T3 sequence (P05177 whole entry): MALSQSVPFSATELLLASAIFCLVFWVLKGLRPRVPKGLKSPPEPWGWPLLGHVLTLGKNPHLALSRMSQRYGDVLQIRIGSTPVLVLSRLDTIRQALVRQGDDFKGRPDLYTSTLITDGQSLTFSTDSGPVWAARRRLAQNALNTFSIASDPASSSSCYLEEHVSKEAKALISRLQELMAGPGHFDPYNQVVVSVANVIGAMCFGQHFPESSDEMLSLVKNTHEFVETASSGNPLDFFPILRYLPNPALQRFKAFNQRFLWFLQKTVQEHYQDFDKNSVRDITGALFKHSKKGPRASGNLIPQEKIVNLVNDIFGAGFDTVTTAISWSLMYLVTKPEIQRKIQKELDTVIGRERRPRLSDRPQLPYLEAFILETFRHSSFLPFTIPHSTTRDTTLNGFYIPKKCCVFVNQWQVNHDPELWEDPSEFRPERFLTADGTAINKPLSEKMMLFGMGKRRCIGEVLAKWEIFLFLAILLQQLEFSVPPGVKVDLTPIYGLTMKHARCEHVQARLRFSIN

Cytochrome P450 2C9, sequence (P11712 whole entry): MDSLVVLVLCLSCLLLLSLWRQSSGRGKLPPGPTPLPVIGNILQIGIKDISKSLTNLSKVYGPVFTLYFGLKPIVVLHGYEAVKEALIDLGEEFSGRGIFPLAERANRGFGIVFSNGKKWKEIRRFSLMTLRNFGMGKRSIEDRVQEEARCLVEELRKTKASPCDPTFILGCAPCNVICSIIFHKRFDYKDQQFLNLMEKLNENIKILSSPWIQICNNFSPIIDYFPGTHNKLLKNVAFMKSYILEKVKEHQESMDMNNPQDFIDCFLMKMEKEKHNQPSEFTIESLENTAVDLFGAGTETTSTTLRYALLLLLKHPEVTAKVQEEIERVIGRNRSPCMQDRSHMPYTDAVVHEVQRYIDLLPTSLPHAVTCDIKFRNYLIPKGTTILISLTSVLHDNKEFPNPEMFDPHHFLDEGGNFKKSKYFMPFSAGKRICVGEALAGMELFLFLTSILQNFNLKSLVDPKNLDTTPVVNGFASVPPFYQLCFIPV
Cytochrome P450 2C19, sequence (P33261 whole entry): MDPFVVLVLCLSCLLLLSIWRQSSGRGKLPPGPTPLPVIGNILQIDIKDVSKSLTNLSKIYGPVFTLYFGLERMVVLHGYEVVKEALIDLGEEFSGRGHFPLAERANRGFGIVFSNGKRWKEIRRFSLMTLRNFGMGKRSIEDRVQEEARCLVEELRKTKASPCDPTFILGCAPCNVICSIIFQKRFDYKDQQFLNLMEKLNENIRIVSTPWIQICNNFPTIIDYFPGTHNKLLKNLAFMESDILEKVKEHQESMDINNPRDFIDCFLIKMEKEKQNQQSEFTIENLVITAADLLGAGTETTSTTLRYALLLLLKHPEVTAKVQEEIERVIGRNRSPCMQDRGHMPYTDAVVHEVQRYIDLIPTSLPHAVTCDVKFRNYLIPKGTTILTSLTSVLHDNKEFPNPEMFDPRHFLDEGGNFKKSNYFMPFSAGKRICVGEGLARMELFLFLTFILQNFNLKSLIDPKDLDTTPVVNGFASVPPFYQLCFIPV
Cytochrome P450 2D6, sequence (P10635 whole entry): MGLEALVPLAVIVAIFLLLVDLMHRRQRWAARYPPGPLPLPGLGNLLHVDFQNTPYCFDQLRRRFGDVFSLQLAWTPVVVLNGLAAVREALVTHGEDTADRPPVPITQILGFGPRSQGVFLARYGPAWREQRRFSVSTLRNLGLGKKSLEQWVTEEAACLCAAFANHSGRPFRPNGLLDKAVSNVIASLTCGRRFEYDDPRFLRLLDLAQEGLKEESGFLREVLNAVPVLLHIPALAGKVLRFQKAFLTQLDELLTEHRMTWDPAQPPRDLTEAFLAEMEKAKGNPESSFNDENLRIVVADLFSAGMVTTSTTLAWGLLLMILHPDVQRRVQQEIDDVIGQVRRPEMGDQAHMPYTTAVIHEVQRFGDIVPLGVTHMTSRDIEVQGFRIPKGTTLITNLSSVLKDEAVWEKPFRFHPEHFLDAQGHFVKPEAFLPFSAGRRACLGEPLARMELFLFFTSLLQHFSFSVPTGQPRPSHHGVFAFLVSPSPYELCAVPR

SMILES: CCOC(=O)c1sc(/N=C/c2ccc(O)cc2O)cc1C
IC50 [1]: 22.4 µM (active)

SMILES: CCOC(=O)C1CCCN(C(=O)CSCc2ccccc2)C1 (configuration not stated)
AC50 [4]: 15.8 µM (inconclusive)

SMILES: c1nc(NCCN2CCOCC2)c2cc(-c3ccc4c(c3)OCO4)ccc2n1
AC50 ([5]; read-out: AC50): 39.8 µM (inconclusive)

SMILES: COc1ccc(C(=O)O[C@H]2CC[C@@]3(C)[C@H]4CC[C@H]5[C@]3(C[C@]3(O)[C@H]6CN7C[C@H](C)CC[C@H]7[C@](C)(O)[C@]6(O)[C@H](O)C[C@]53O)O[C@]24O)cc1OC
AC50 [5]: inconclusive

SMILES: COc1ccc(-n2c(C)cc(/C=C3/SC(=S)N(C)C3=O)c2C)cc1
EC50 [2]: > 53 µM (inactive)

SMILES: COCCN=C(S)NC1CC2CCCC(C1)N2Cc1cccs1 (configuration not stated)
AC50 [3]: 39.8 µM (inconclusive)

SMILES: N=C(N)SCC(=O)O
AC50 [5]: inconclusive

SMILES: COc1cc(/C=C2\C(=N)N3N=C(CC(=O)N4CCOCC4)SC3=NC2=O)ccc1O
IC50 [1]: 159 µM (active)

Results, then the compound that gave them:

IC50 [1]: 54.8 µM (active)
SMILES: Oc1ccc(Cc2ccccc2Cl)c(O)c1

EC50 [2]: 5.99 µM (active)
SMILES: O=C(NCc1cc(C(F)(F)F)ccc1Cl)c1cccc2c1C(=O)c1ccc(N3CCC(Cc4ccccc4)CC3)cc1S2(=O)=O

AC50 [3]: 31.6 µM (inconclusive)
AC50 [4]: 22.4 µM (inconclusive)
SMILES: Cc1ccc(-c2ncccc2OC(=O)C23CC4CC(CC(C4)C2)C3)cc1

AC50 [3]: 39.8 µM (inconclusive)
AC50 [4]: 39.8 µM (inconclusive)
AC50 ([5]; read-out: AC50): 39.8 µM (inconclusive)
AC50 [6]: 25.1 µM (inconclusive)
SMILES: N#Cc1cccc(NC(=O)N2CC[C@@]3(CCCN(S(=O)(=O)c4ccccc4)C3)C2)c1

AC50 [3]: 0.126 µM (inconclusive)
SMILES: O=C(CNC(=O)c1cccs1)NCC(=O)OCc1ccc(Cl)cc1

AC50 [3]: 15.8 µM (inconclusive)
AC50 ([5]; read-out: AC50): 7.94 µM (inconclusive)
SMILES: Nc1ccc(/N=N\c2ccccc2)c(N)n1

IC50 [1]: 39.3 µM (active)
SMILES: COc1cc(/C=C/C(=O)OCC(=O)NCC2CCCCC2)ccc1O

IC50 [1]: 21 µM (active)
SMILES: CCOC(=O)c1oc2cc(O)cc(C)c2c1C

AC50 [4]: 15.8 µM (inconclusive)
SMILES: CC(=O)N1CCN(c2ccccc2NC(=O)COc2ccc(Br)cc2)CC1

AC50 [3]: 20 µM (inconclusive)
AC50 [6]: 31.6 µM (inconclusive)
SMILES: CCOC(=O)c1cc2sc(C)cc2n1CC(=O)N1CCN(C(=O)c2ccco2)CC1

AC50 [3]: 2.51 µM (inconclusive)
SMILES: O=c1c(-c2ccc(F)cc2)nc2cnc(Oc3ccccc3)nc2n1Cc1cccs1

IC50 [1]: 115 µM (active)
SMILES: CCOC(=O)c1[nH]c2ccccc2c1N=C(S)Nc1cccc(C)c1

AC50 [4]: 15.8 µM (inconclusive)
SMILES: COc1ccc2[nH]cc(CCNc3ccnc(-c4ccccc4C(F)(F)F)n3)c2c1
